Results from patent US20260125375A1 (Pfizer Inc., priority 2022, published 2026).
Where two headings read alike, the source gives them in different places.

Columns and labels:
CBL-B (residues 36-427) = target: T1, CBL-B (residues 36-427) (Homo sapiens, UniProt Q13191); test: Ligand Displacement Assay (LDA), HTRF competitive binding against BODIPY-labeled fluorescent tracer, CBL-B; settings: geometric mean of the number of tests, read-out: CBL-B Ki (nM) GMean
T1 construct: Purified CBL-B (residues 36-427) and C-CBL (residues 46-435) proteins from baculovirus-infected insect cells; made in house; host or cells: baculovirus-infected insect cells
Method in brief: (§1)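 Ki values, given as geometric means of repeated tests, come from TR-FRET displacement of a BODIPY-labelled tracer from terbium-streptavidin-bound, AviTag-biotinylated protein made in baculovirus-infected insect cells. Compounds ran as three-fold dilutions in duplicate, […], 2% DMSO.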

C-CBL (residues 46-435) = target: T2, C-CBL (residues 46-435) (Homo sapiens, UniProt P22681); test: Ligand Displacement Assay (LDA), HTRF competitive binding against BODIPY-labeled fluorescent tracer, C-CBL; settings: geometric mean of the number of tests, read-out: C-CBL Ki (nM) GMean
T2 construct: Purified CBL-B (residues 36-427) and C-CBL (residues 46-435) proteins from baculovirus-infected insect cells; made in house; host or cells: baculovirus-infected insect cells
T2 sequence (P22681 46-435): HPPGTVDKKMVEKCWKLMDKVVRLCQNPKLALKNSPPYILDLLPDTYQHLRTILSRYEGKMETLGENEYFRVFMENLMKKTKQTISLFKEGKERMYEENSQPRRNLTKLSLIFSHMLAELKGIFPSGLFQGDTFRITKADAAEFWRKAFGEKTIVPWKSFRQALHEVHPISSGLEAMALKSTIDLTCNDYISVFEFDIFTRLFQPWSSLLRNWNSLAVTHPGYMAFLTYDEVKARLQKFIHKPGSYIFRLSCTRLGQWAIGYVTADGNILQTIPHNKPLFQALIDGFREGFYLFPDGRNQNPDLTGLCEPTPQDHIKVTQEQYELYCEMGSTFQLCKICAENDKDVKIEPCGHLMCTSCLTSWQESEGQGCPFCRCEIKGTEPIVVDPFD
Method in brief: as §1

CBL-B = target: T3, CBL-B (Homo sapiens, UniProt Q13191); test: Jurkat HiBit-IL2 assay (c-CBL KO), reporter cell line expressing CBL-B only; assay type: cell-based; settings: geometric mean, read-out: C-CBL KO EC50 (nM) GMean
T3 construct: endogenous in cells; host or cells: Jurkat HiBit-IL2 reporter cells, C-CBL knocked out by CRISPR
From the text: (§2) Jurkat HiBit-IL2 Assay (WT, c-CBL KO, CBL-B KO)
(§3) The purpose of the Jurkat HiBit-IL2 assay is to evaluate the effect of the inhibition of CBL-B and/or C-CBL on TCR/CD28 stimulated interleukin-2 (IL-2) secretion.
(§4) The expression of IL-2 can then be accurately measured by HiBit luciferase assay. Further, C-CBL or CBL-B was knocked out by CRISPR respectively in this Jurkat HiBit-IL2 reporter cell line to create reporter cell line expressing CBL-B only (c-CBL knockout (KO)) or C-CBL only (CBL-B KO).
(§5) All three reporter cell lines were maintained in RPMI-1640 media with GlutaMax, 10% fetal bovine serum, 100 units/ml of penicillin, and 100 μg/ml of streptomycin at 37° C., 5% CO2, at a cell density 1×10e5-2×10e6 viable cells/ml. Serial diluted compounds in DMSO (40 nl/well, final 0.1% DMSO in assay cell culture) were plated into 384-well white-wall clear-bottom cell culture plates. Reporter cells were pelleted and resuspended in fresh cell culture medium to 0.66×10e6 cells/ml and added to the assay plate at 30 μl/well (20,000 cells/well). The cells were incubated with compounds for 1 hour at 37° C., 5% CO2. 10 μl/well of anti-CD3 antibody (OKT3) and anti-CD28 antibody (CD28.2) prediluted in fresh cell culture medium at 4× final concentration (anti-CD3 mAb: 4 μg/ml; anti-CD28 mAb: 8 μg/ml) was added into the cells (final concentration of anti-CD3 mAb: 1 μg/ml; anti-CD28 mAb: 2 μg/ml). The cells were cultured for another 4 hours at 37° C., 5% CO2. The Nano-Glo HiBiT Lytic Reagent was prepared following the manufacturer's protocol. 20 ul/well of the Nano-Glo HiBiT Lytic Reagent was added into the reporter cell culture assay plate and incubated at room temperature (20-25° C.) for 15 minutes. The plates were read on a Perkin-Elmer EnVision plate reader with 0.1 second integration time. Data were normalized to “Fold of Effect” with the anti-CD3 and anti-CD28 antibodies only samples as the baseline activation level and EC50 was calculated. The EC50 (nM) values reported are the geometric means (GMean) of the number of tests conducted.

C-CBL = target: T4, C-CBL (Homo sapiens, UniProt P22681); test: Jurkat HiBit-IL2 assay (CBL-B KO), reporter cell line expressing C-CBL only; assay type: cell-based; settings: geometric mean, read-out: CBL-B KO EC50 (nM) GMean
T4 construct: endogenous in cells; host or cells: Jurkat HiBit-IL2 reporter cells, CBL-B knocked out by CRISPR
From the text: as §2, §3, §4, §5

WT CBL-B (36-427) = target: T5, WT CBL-B (36-427) (Homo sapiens, UniProt Q13191); test: Surface Plasmon Resonance (SPR) assay, binding affinity and kinetics, CBL-B; settings: SPR at 10° C., biotinylated WT CBL-B (36-427) on streptavidin chip; geometric mean; read-out: CBL-B SPR Kd (nM) GMean
T5 construct: N-terminal biotinylated WT CBL-B (36-427) and C-CBL (46-435) were captured on a streptavidin (SA) coated sensor chip
Method in brief: (§6)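 SPR kinetics at 10° C, run either single-cycle (0.001–1 μM, 3-fold, 6 points, 120 s on, >5400 s off) or multi-cycle (10 points, 2-fold, top 10 or 100 μM, 90 s on). Proteins were N-biotinylated CBL-B (36-427) and C-CBL (46-435) on SA surfaces, in pH 7.2 HEPES, 2% DMSO.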

C-CBL (46-435) = target: T6, C-CBL (46-435) (Homo sapiens, UniProt P22681); test: Surface Plasmon Resonance (SPR) assay, binding affinity and kinetics, C-CBL; settings: SPR at 10° C., biotinylated C-CBL (46-435) on streptavidin chip; geometric mean; read-out: C-CBL SPR Kd (nM) GMean
T6 construct: N-terminal biotinylated WT CBL-B (36-427) and C-CBL (46-435) were captured on a streptavidin (SA) coated sensor chip
T6 sequence (P22681 46-435): T2 sequence (P22681 46-435)
Method in brief: as §6

[1] = C-CBL KO (expressing CBL-B only), Table 16b (further repetition)
[2] = c-CBL KO (CBL-B only), anti-CD3/anti-CD28 stimulation 4 hours, Table 16a
[3] = CBL-B KO (C-CBL only), anti-CD3/anti-CD28 stimulation 4 hours, Table 16a
[4] = CBL-B KO (expressing C-CBL only), Table 16b (further repetition)

Compound	Ki (CBL-B (residues 36-427))	Ki (C-CBL (residues 46-435))	EC50 (CBL-B; [1])	EC50 (CBL-B; [2])	EC50 (C-CBL; [3])	EC50 (C-CBL; [4])	Kd (WT CBL-B (36-427))	Kd (C-CBL (46-435))
C[C@H](CO)N[C@H](C)c1nc(C(F)(F)F)cc2c(-c3cccc([C@H](c4nncn4C)C4CCC4)c3)n[nH]c12 (single isomer, unassigned) [Example C44]	2.2 nM	25 nM	60 nM	21 nM	253 nM	356 nM	–	–
CC(NCCO)c1nc(C(F)(F)F)cc2c(-c3cccc([C@H](c4nncn4C)C4CCCCC4)c3)n[nH]c12 (single isomer, unassigned) [Example C39]	7.4 nM	73.2 nM	108 nM	35 nM	496 nM	615 nM	–	–
CC(O)CNC(C)c1nc(C2CC2)cc2c(-c3cccc(C(c4nncn4C)C4CCC4)c3)n[nH]c12 (single isomer, unassigned) [Example H1]	4.3 nM	48.4 nM	103 nM	44 nM	559 nM	485 nM	–	–
C[C@H](N[C@H]1CC[C@@H]1O)c1nc(C(F)(F)F)cc2c(-c3cccc([C@H](c4nncn4C)C4CCC4)c3)n[nH]c12 (single isomer, unassigned) [Example D21]	5.4 nM	68.1 nM	107 nM	39 nM	420 nM	1150 nM	–	–
CC(N[C@H](C)[C@H](C)O)c1nc(C(F)(F)F)cc2c(-c3cccc([C@H](c4nncn4C)C4CCC4)c3)n[nH]c12 (single isomer, unassigned) [Example C48]	2.5 nM	33 nM	67 nM	20 nM	493 nM	466 nM	–	–
C[C@@H](c1nc(C(F)(F)F)cc2c(-c3cccc([C@H](c4nncn4C)C4CCC4)c3)n[nH]c12)N1CC[C@@H](O)C1 (single isomer, unassigned) [Example D68]	15.2 nM	134 nM	293 nM	–	–	1710 nM	–	–
CC(NC1CCC1)c1nc(C2CC2)cc2c(-c3cccc(C4(Cc5nncn5C)COC4)c3)n[nH]c12 (single isomer, unassigned) [Example H3, N-{(1ξ)-1-[5-cyclopropyl-3-(3-{3-[(4-methyl-4H-1,2,4-triazol-3-yl)methyl]oxetan-3-yl}phenyl)-1H-pyrazolo[3,4-c]pyridin-7-yl]ethyl}cyclobutanamine]	8.1 nM	28.8 nM	231 nM	49 nM	392 nM	415 nM	–	–
Cn1cnnc1[C@@H](c1cccc(-c2n[nH]c3c(CN[C@@H]4CCC(F)(F)C4)nc(C(F)(F)F)cc23)c1)C1CCC1 [Example C5, (1R)-N-{[3-{3-[(R)-cyclobutyl(4-methyl-4H-1,2,4-triazol-3-yl)methyl]phenyl}-5-(trifluoromethyl)-1H-pyrazolo[3,4-c]cyclopen-7-yl]methyl}-3,3-difluorocyclopentan-1-amine]	55.3 nM	526 nM	–	–	1250 nM	–	3.4 nM	203 nM
C[C@H](Cc1nncn1C)c1cccc(-c2n[nH]c3cnc(C(F)(F)F)cc23)c1 [Example N1, 3-{3-[(2R)-1-(4-methyl-4H-1,2,4-triazol-3-yl)propan-2-yl]phenyl}-5-(trifluoromethyl)-1H-pyrazolo[3,4-c]pyridine]	70 nM	249 nM	–	–	–	–	35.8 nM	275 nM
Cn1cnnc1[C@@H](c1cccc(-c2n[nH]c3c(CN4CC[C@@H](F)C4)nc(C(F)(F)F)cc23)c1)C1CCC1 [Example C109, 3-{3-[(R)-cyclobutyl(4-methyl-4H-1,2,4-triazol-3-yl)methyl]phenyl}-7-{[(3R)-3-fluoropyrrolidin-1-yl]methyl}-5-(trifluoromethyl)-1H-pyrazolo[3,4-c]pyridine]	48.8 nM	442 nM	–	–	–	–	8.8 nM	174 nM
CN1CC[C@H](Oc2nc(C(F)(F)F)cc3c(-c4cccc([C@H](c5nncn5C)C5CCC5)c4)n[nH]c23)C1 [Example J5, 3-{3-[(R)-cyclobutyl(4-methyl-4H-1,2,4-triazol-3-yl)methyl]phenyl}-7-{[(3S)-1-methylpyrrolidin-3-yl]oxy}-5-(trifluoromethyl)-1H-pyrazolo[3,4-c]pyridine]	10 nM	87.1 nM	–	–	–	–	3.3 nM	137 nM
C[C@@H](c1nc(C(F)(F)F)cc2c(-c3cccc(C4(Cc5nncn5C)COC4)c3)n[nH]c12)N1CCNCC1 (single isomer, unassigned) [Example D53]	11.8 nM	36.9 nM	–	–	–	–	3.2 nM	36.1 nM
Cn1cnnc1[C@@H](c1cccc(-c2n[nH]c3c(CNC4CCOCC4)nc(C(F)(F)F)cc23)c1)C1CCC1 [Example D85]	23.4 nM	237 nM	–	–	–	–	6.9 nM	241 nM
CC(N[C@@H]1CCOC1)c1nc(C(F)(F)F)cc2c(-c3cccc(C4(Cc5nncn5C)COC4)c3)n[nH]c12 (single isomer, unassigned) [Example C85]	15.2 nM	92.5 nM	–	–	–	–	2.1 nM	82.5 nM
Cn1cnnc1[C@@H](c1cccc(-c2n[nH]c3c(CNC4CCNC(=O)C4)nc(C(F)(F)F)cc23)c1)C1CCC1 (single isomer, unassigned) [Example C87]	21.2 nM	210 nM	–	–	–	–	8.4 nM	175 nM
C[C@@H](c1nc(C(F)(F)F)cc2c(-c3cccc(C4(Cc5nncn5C)COC4)c3)n[nH]c12)N1CC(F)C1 (single isomer, unassigned) [Example D43]	14.5 nM	75.1 nM	–	–	–	–	6.7 nM	80.2 nM
Cn1cnnc1CC1(c2cccc(-c3n[nH]c4c(CN5CCC5)nc(C(F)(F)F)cc34)c2)COC1 [Example C61, 7-[(azetidin-1-yl)methyl]-3-(3-{3-[(4-methyl-4H-1,2,4-triazol-3-yl)methyl]oxetan-3-yl}phenyl)-5-(trifluoromethyl)-1H-pyrazolo[3,4-c]pyridine]	53 nM	232 nM	–	–	–	–	12.8 nM	99.8 nM
